The record followed here is patent publication US8188098B2, “GPR119 receptor agonists” (Hoffmann-La Roche Inc., priority 2008, dated 2012).

SMILES strings stand for the structures.

For one assay, the system named is C57B1/6J mice. The assay can be described thus: oral glucose tolerance test (OGTT) in C57B1/6J mice. The assay is classed as in vivo. The note with it: 30 mg/kg oral gavage, 2 g/kg glucose bolus two hours after dosing; vs vehicle treated mice. The protocol:
The in vivo activity of selected compounds of the invention was characterized using an oral glucose tolerance test in C57B1/6J mice.
C57B1/6J mice were obtained from Jackson Laboratory (Bar Harbor, Me.) and were maintained in a light-dark cycle with lights on from 0600-1800 hr. The mice were received at age nine weeks and given ad libitum access to diet (LabDiet 5001 chow, PMI Nutrition, Brentwood, Mo.), and were at age 10 weeks at the time of study The experiments were conducted during the light phase of the light-dark cycle. Mice (n=10) were weighed and fasted for a four hour period prior to treatment with GPR119 agonists or formulation vehicle via oral gavage. GPR119 agonists were formulated in Klucel vehicle (2% Klucel LF with 0.1% Tween 80, in water) at a concentration of 4.0 mg/mL and the mice were dosed with a 7.5 mL/kg volume to equal a 30 mg/kg dose. Two hours following dosing, the animals were given an oral glucose tolerance test (OGTT). For the OGTT, the animals were given a 2 g/kg glucose bolus via oral gavage. Blood glucose readings were made immediately prior to the glucose challenge, and 30, 60 and 120 minutes following. […] Area under the curve (AUC) for plots of blood glucose vs. time for the individual mice was calculated by the trapezoidal method. […]

Another assay addresses T1, GPR119 receptor (Mesocricetus auratus, UniProt A0A1U8CD06).
T1 construct: which endogenously express the GPR119 receptor; host or cells: HIT-T15 hamster pancreatic islet cells
T1 sequence (A0A1U8CD06 1-334): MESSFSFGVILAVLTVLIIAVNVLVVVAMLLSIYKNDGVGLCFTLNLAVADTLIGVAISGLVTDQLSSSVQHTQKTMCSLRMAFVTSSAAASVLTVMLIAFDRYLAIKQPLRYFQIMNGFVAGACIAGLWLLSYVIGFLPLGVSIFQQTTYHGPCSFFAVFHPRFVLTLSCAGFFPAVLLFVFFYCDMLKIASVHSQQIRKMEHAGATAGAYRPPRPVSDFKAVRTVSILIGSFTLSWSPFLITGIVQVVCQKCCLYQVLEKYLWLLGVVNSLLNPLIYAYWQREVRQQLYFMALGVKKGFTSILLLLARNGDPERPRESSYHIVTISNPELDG
Description: cAMP assay in HIT-T15 hamster pancreatic islet cells (functional agonist activity). Format: cell-based. The note with it: HIT-T15 cells endogenously expressing GPR119; 30 min at 25° C.; intracellular cAMP. An outline of the steps:
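cAMP immunoassay with luminescent read-out, EC50 fitted, after a 30 min, 25° C agonist incubation in HIT-T15 hamster islet cells expressing GPR119 natively. Medium contained 0.5 mM IBMX and 0.5 mg/ml BSA; 9000 cells/well.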
Background: Changes in cAMP serve as a functional read-out for many G protein-coupled receptors.

For orientation: EC50 means the concentration that produces a half-maximal response. For the compound `CC(C)OC(=O)N1CCC(n2ncc3c(Oc4ccc(S(C)(=O)=O)cc4)ncnc32)CC1` [Example 21, 4-[4-(4-Methanesulfonyl-phenoxy)-pyrazolo[3,4-d]pyrimidin-1-yl]-piperidine-1-carboxylic acid isopropyl ester], the “decrease in mean baseline-subtracted AUC (blood glucose vs. time)” value in the assay with C57B1/6J mice amounted to 44%. The EC50 at GPR119 receptor came out at 0.26 µM.
As for `CS(=O)(=O)c1ccc(Oc2ncnc3c2cnn3C2CCN(C(=O)OC(C(F)(F)F)C(F)(F)F)CC2)cc1` [Example 112, 4-[4-(4-Methanesulfonyl-phenoxy)-pyrazolo[3,4-d]pyrimidin-1-yl]-piperidine-1-carboxylic acid 2,2,2-trifluoro-1-trifluoromethyl-ethyl ester], a half-maximal response at GPR119 receptor (EC50) required 0.5 µM.
Take `CS(=O)(=O)c1ccc(Oc2ncnc3c2cnn3C2CCN(Cc3cccc(C#N)c3)CC2)cc1` [Example 168, 3-{4-[4-(4-Methanesulfonyl-phenoxy)-pyrazolo[3,4-d]pyrimidin-1-yl]-piperidin-1-ylmethyl}-benzonitrile]: at GPR119 receptor, the EC50 was found to be 1.5 µM.
As to `COc1ccc(Oc2ncnc3c2cnn3C2CCN(C(=O)OC(C)(C)C)CC2)cc1` [Example 39, 4-[4-(4-Methoxy-phenoxy)-pyrazolo[3,4-d]pyrimidin-1-yl]-piperidine-1-carboxylic acid tert-butyl ester], the EC50 at GPR119 receptor came to 0.72 µM.
